Laboratory results: paper PMC4057759, “Biological Evaluation and 3D-QSAR Studies of Curcumin Analogues as Aldehyde Dehydrogenase 1 Inhibitors” (International Journal of Molecular Sciences, 2014)
Where two headings read alike, the source gives them in different places.

Assays:
baker's yeast ALDH1 = biological target: T1, baker's yeast ALDH1 (Saccharomyces cerevisiae, UniProt P46367); assay: In vitro ALDH1 inhibitory assay (propanal oxidation, NAD, OD 340 nm); format: biochemical; conditions: for inhibitory activity on ALDH1 (in words): in vitro
T1 construct: purchased Sigma (St. Louis, MO, USA)
T1 sequence (P46367 25-519): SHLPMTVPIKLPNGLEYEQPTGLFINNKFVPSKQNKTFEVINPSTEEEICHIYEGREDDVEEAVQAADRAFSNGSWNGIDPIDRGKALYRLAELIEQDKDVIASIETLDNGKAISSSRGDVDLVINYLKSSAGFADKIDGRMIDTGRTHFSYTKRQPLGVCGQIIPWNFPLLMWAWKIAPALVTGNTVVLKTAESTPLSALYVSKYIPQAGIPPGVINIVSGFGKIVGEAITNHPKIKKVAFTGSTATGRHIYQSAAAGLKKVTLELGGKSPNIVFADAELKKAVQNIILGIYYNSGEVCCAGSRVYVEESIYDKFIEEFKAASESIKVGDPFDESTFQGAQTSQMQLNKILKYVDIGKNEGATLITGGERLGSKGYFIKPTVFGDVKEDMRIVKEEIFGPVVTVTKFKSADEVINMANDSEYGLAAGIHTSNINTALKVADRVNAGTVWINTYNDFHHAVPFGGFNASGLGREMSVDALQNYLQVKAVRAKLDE
Method: (§1) In vitro ALDH1 inhibitory assay was performed as follows. To a reaction mixture containing 1 mM EDTA, 100 mM KCl, 2 mM NAD, 0.1 M sodium phosphate buffer pH 7.4, 1 U/mg baker’s yeast ALDH1 was added by Multifunction microplatereader (Tecan Infinite 200, TECAN Austria GmbH, Männedorf, Switzerland). The reaction was started by the addition of 1 mM propanal in final volume of 300 μL and the optical density (OD) was read at 340 nm at 0 min (just after the addition of the substrate) and reacted for 5 min. The enzyme activity is expressed as OD/min at 25 °C at the pH 7.4. Results are the average of three experiments done in duplicate. […] The IC50 values in units of μM were transformed in pIC50 (–log IC50). The data was randomly divided into training set (26 samples) and test set (4 samples * carry out external validation).

ALDH1 = biological target: T2, ALDH1 (Saccharomyces cerevisiae, UniProt P46367); assay: Kinetic analysis of inhibition of ALDH1 (Lineweaver-Burk plots, propanal); format: biochemical, baker's yeast; conditions: double-reciprocal plots, oxidation of propanal
T2 construct: purchased Sigma (St. Louis, MO, USA)
T2 sequence (P46367 25-519): T1 sequence (P46367 25-519)
Method: as §1, with “Figure 1. […] In vitro” for “In vitro”

Solubility (remark) = format: physicochemical
[1] = 1 mM propanal, 2 mM NAD, pH 7.4, 25 °C, read-out: IC50
[2] = Table 3, experimental activity, read-out: Actual pIC50 (converted)
[3] = Table 1, –log IC50, read-out: pIC50 (converted)

| Structure (SMILES) | IC50 (baker's yeast ALDH1; [1]) [µM] | IC50 (baker's yeast ALDH1; [2]) [µM] | other results |
| --- | --- | --- | --- |
| O=C1/C(=C/c2ccc(O)c(O)c2)CNC/C1=C\c1ccc(O)c(O)c1 [Compound 4] | 39.4 | 39.8 | – |
| O=C(/C=C/c1ccc(O)c(O)c1)/C=C/c1ccc(O)c(O)c1 [Compound 5] | 23.6 | 23.4 | – |
| O=C1/C(=C/c2ccc(O)c(O)c2)CC/C1=C\c1ccc(O)c(O)c1 [Compound 6] | 3.41 | – | IC50 (baker's yeast ALDH1; [3]): 3.47 µM; inhibitory activity on ALDH1 (in words) (baker's yeast ALDH1): high inhibitory activity; activity relative to curcumin (baker's yeast ALDH1; ratio of IC50 values): over 10 times; inhibition type (ALDH1): mixed-competitive inhibition type |
| O=C1/C(=C/c2ccc(O)c(O)c2)CCC/C1=C\c1ccc(O)c(O)c1 [Compound 7] | – | – | IC50 (baker's yeast ALDH1; Actual pIC50, Table 3, experimental activity): 6.31 µM; IC50 (baker's yeast ALDH1; IC50, 1 mM propanal, 2 mM NAD, pH 7.4, 25 °C): 6.5 µM; inhibitory activity on ALDH1 (in words) (baker's yeast ALDH1): high inhibitory activity; IC50 (baker's yeast ALDH1; pIC50, Table 1, –log IC50): 6.31 µM |
| O=C1/C(=C/c2ccc(O)c(O)c2)CSC/C1=C\c1ccc(O)c(O)c1 [Compound 9] | 22.7 | 22.9 | – |
| COc1cc(/C=C2\CC/C(=C\c3ccc(O)c(OC)c3)C2=O)ccc1O [Compound 13] | 24.2 | 24 | – |
| COc1cc(/C=C2\COC/C(=C\c3cc(OC)c(O)c(OC)c3)C2=O)cc(OC)c1O [Compound 15] | 16.6 | 16.6 | – |
| COc1cc(/C=C2\COC/C(=C\c3cc(F)c(O)c(OC)c3)C2=O)cc(F)c1O [Compound 16] | 53.2 | 53.7 | – |
| O=C(/C=C/c1cc(Br)c(O)c(Br)c1)/C=C/c1cc(Br)c(O)c(Br)c1 [Compound 17] | 25.8 | 25.7 | – |
| O=C1/C(=C/c2cc(Br)c(O)c(Br)c2)COC/C1=C\c1cc(Br)c(O)c(Br)c1 [Compound 19] | 18.7 | 18.6 | – |
| COc1cc(/C=C2\CSC/C(=C\c3cc(OC)c(OC)c(OC)c3)C2=O)cc(OC)c1OC [Compound 21] | 63.1 | 63.1 | – |
| O=C1/C(=C/c2ccccn2)CC/C1=C\c1ccccn1 [Compound 29] | – | 13.8 | IC50 (baker's yeast ALDH1; [3]): 13.8 µM |
| COc1cc(/C=C/C(=O)CC(=O)/C=C/c2ccc(O)c(OC)c2)ccc1O [Curcumin] | 36.9 | – | – |
| CCN(CC)C(=S)SSC(=S)N(CC)CC [Disufiram, disulfiram, reference compound] | 2.91 | – | – |

The next lines start with results.

| IC50 (baker's yeast ALDH1; [1]) [µM] | IC50 (baker's yeast ALDH1; [2]) [µM] | Structure (SMILES) | other results |
| --- | --- | --- | --- |
| 30 | 30.2 | COc1cc(/C=C2\CNC/C(=C\c3cc(OC)c(O)c(OC)c3)C2=O)cc(OC)c1O [Compound 3] | – |
| 7.9 | 7.94 | O=C1/C(=C/c2ccc(O)c(O)c2)COC/C1=C\c1ccc(O)c(O)c1 [Compound 8] | inhibitory activity on ALDH1 (in words) (baker's yeast ALDH1): high inhibitory activity |
| 54.2 | 63.1 | O=C1/C(=C/c2ccc(O)cc2)CC/C1=C\c1ccc(O)cc1 [Compound 10] | – |
| 39.7 | 38.9 | O=C1/C(=C/c2ccc(O)cc2)COC/C1=C\c1ccc(O)cc1 [Compound 11] | IC50 (baker's yeast ALDH1; [3]): 38.9 µM |
| 43.2 | 43.7 | O=C1/C(=C/c2cc(O)cc(O)c2)CC/C1=C\c1cc(O)cc(O)c1 [Compound 12] | – |
| 31.3 | 31.6 | COc1cc(/C=C2\CSC/C(=C\c3ccc(O)c(OC)c3)C2=O)ccc1O [Compound 14] | – |
| 17.5 | 17.4 | O=C1/C(=C/c2cc(Br)c(O)c(Br)c2)CCC/C1=C\c1cc(Br)c(O)c(Br)c1 [Compound 18] | – |
| 17.7 | 17.8 | O=C1/C(=C/c2cc(Br)c(O)c(Br)c2)CSC/C1=C\c1cc(Br)c(O)c(Br)c1 [Compound 20] | – |
| 73.5 | 74.1 | CN(C)c1ccc(/C=C2\CCC/C(=C\c3ccc(N(C)C)cc3)C2=O)cc1 [Compound 22] | – |
| 69.4 | 69.2 | CN(C)c1ccc(/C=C2\CSC/C(=C\c3ccc(N(C)C)cc3)C2=O)cc1 [Compound 23] | – |
| 8.2 | 8.32 | O=C1/C(=C/c2ccc(Br)cc2)CCC/C1=C\c1ccc(Br)cc1 [Compound 24] | IC50 (baker's yeast ALDH1; [3]): 8.32 µM; inhibitory activity on ALDH1 (in words) (baker's yeast ALDH1): high inhibitory activity; inhibition type (ALDH1): mixed-competitive inhibition type; solubility (Solubility (remark)): not good |
| 30.1 | 29.5 | O=C1/C(=C/c2cccs2)CC/C1=C\c1cccs1 [Compound 25] | IC50 (baker's yeast ALDH1; [3]): 29.5 µM |
| 10.6 | 10.7 | O=C1/C(=C/c2ccncc2)CSC/C1=C\c1ccncc1 [Compound 26] | – |
| 18.4 | 18.2 | O=C1/C(=C/c2ccccn2)CCC/C1=C\c1ccccn1 [Compound 30] | – |
